We go through four compounds from patent US11278024B2 (priority 2017, dated 2022).

Marks after values point to notes of the source that are not given here.

Common to all, as to format: in vivo
In data set [1] the test system is root-knot nematodes (Meloidogyne spp.). The data set can be described thus: Petri dish nematocidal activity on hatched root-knot nematodes. To be noted: for Number of killed root-knot nematodes: 15 nematodes; for Nematocidal efficiency (%): within 3 days; for Nematocidal efficiency on root-knot nematodes (%): geraniol concentration 685 ppm. The procedure:
The nematodes used in the experiments were Meloidogyne spp. (hatched from eggs from infected roots of melons from farms in Seongju-gun, Gyeongsangbuk-do, Korea), and were propagated using tomato plants from Ecowin Co. Ltd. and used for experiments.
The tomato roots infected with root-knot nematodes were washed with running water and were then cut to a size of about 1 cm, after which 50 g of the cut roots was placed in a 500 ml round-bottom flask containing 200 ml of 0.5% sodium hypochloride (NaOCl), stopped with a rubber stopper, and shaken vigorously for 3 min to sterilize the roots and at the same time burst the egg bag. Thereafter, the solution was passed through a sieve in which 200 mesh was superimposed on 500 mesh, and washed with distilled water, so the eggs of the root-knot nematodes from which the NaOCl solution was removed were recovered.
Next, the eggs of the root-knot nematodes thus recovered were surface-sterilized with 0.5% NaOCl for 10 min, washed thoroughly with sterile distilled water, placed in a phosphate buffer (1%) containing sterilized normal saline, and hatched in an incubator at 25° C.
Thereafter, […], 2 to 3 ml thereof was poured into a Petri dish, after which 15 hatched root-knot nematodes were placed in the Petri dish, and nematocidal activity was measured and the results thereof are shown in Table 1 below.
Nematocidal activity on root-knot nematodes (treatment concentration: […]) was evaluated in the same manner as in Example 1, with the exception that Ostericum koreanum, clove, Myristica fragrans, Acorus gramineus, Kaempferia galanga and Amomum cardamomum L. extracts were used, in lieu of the naturally derived materials. Here, Ostericum koreanum, clove, Myristica fragrans, Acorus gramineus, Kaempferia galanga and Amomum cardamomum L. were purchased from a medicinal plant retailer located in the Daegu area and then extracted using ethanol according to a typical method. Specifically, each medicine was finely crushed, mixed with ethanol at a ratio of 1:5, and extracted at 180 rpm at room temperature for 48 hr, after which as much ethanol as possible was concentrated using a concentrator.
Nematocidal activity on root-knot nematodes was evaluated in the same manner as in Example 1, with the exception that a neem extract was used in lieu of the naturally derived materials.

The subject of a further data set is spiral nematodes. Description: Petri dish nematocidal activity on spiral nematodes. To be noted: geraniol 2,000 ppm; for Number of killed nematodes: 15 spiral nematodes. The source says:
(§1) Petri dishes, followed by measurement of nematocidal activity.

The subject of the next data set is cyst nematodes. Description: Petri dish nematocidal activity on cyst nematodes. As to conditions: geraniol 2,000 ppm; for Number of killed nematodes: 15 cyst nematodes.
Source text: as §1

A further data set deals with root-lesion nematodes. Description: Petri dish nematocidal activity on root-lesion nematodes. To be noted: geraniol 2,000 ppm; for Number of killed nematodes: 15 root-lesion nematodes.
Source text: as §1

The test system of the next data set is tomato seedlings. The data set can be described thus: Phytotoxicity on tomato seedlings in pots, drenching treatment, observed with the naked eye. To be noted: 50 ml drench, 1 week after treatment. How it is done: Sterilized soil was uniformly mixed, 300 g thereof was then placed in each pot, and tomato seedlings not infected with root-knot nematodes were transplanted thereto.
Sterilized soil was uniformly mixed, 300 g thereof was then placed in each pot, and tomato seedlings not infected with root-knot nematodes were transplanted thereto. The sample prepared in Example 4 was diluted to a standard amount or a multiple thereof for each treatment group, and then 50 ml thereof was used for drenching treatment.

Regarding `O=C1CCC[C@@H]2[C@H]3CCC[N+]4([O-])CCC[C@@H](CN12)[C@@H]34` (stereo partly shown) [Oxymatrine, oxymatrine, reference compound], the “Number of killed root-knot nematodes” value was 7 in data set [1] (2,000 ppm, 1 day); 9 in data set [1] (2,000 ppm, 2 days); 10 in data set [1] (2,000 ppm, 3 days). For the same compound, the “Nematocidal efficiency (%)” value in data set [1] (2,000 ppm) amounted to 66.7%.

On to `C/C=C(\C)C(=O)O[C@H]1C[C@@H](OC(C)=O)[C@@]2(C(=O)OC)CO[C@H]3[C@@H](O)[C@@](C)([C@]45O[C@@]4(C)[C@H]4C[C@@H]5O[C@@H]5OC=C[C@@]54O)[C@H]4[C@]1(CO[C@]4(O)C(=O)OC)[C@@H]32` [Azadirachtin, azadirachtin, reference compound], for which the “Number of killed root-knot nematodes” value is recorded as 7 in data set [1] (2,000 ppm, 1 day); 8 in data set [1] (2,000 ppm, 2 days); 10 in data set [1] (2,000 ppm, 3 days). In data set [1] (2,000 ppm), the “Nematocidal efficiency (%)” value is 66.7%.

Regarding pyrethrin [reference compound], the “Number of killed root-knot nematodes” value in data set [1] (2,000 ppm, 1 day) is 5; in data set [1] (2,000 ppm, 2 days), 6; in data set [1] (2,000 ppm, 3 days), 11. In addition, in data set [1] (2,000 ppm), the “Nematocidal efficiency (%)” value is given as 73.3%.

With `CC(C)=CCC/C(C)=C/CO` [Geraniol, geraniol], the “Number of killed nematodes” value in the data set on spiral nematodes (1 day) is listed as 7; in the data set on spiral nematodes (2 days), 9; in the data set with spiral nematodes (3 days) it was 13; in the data set with cyst nematodes (1 day) it was 8; in the data set with cyst nematodes (2 days) it was 11; in the data set with cyst nematodes (3 days) it was 12. The “Number of killed nematodes” value with root-lesion nematodes (1 day) is given as 14^a; in the data set with root-lesion nematodes (2 days), 15. Besides, the Nematocidal efficiency is 86.7% with spiral nematodes (within 3 days), 80% with cyst nematodes (within 3 days) and 100% in the data set on root-lesion nematodes (within 3 days). The “Number of killed root-knot nematodes” value in data set [1] (100 ppm, 1 day) is listed as 5; in data set [1] (100 ppm, 2 days) it was 7; in data set [1] (100 ppm, 3 days), 7; in data set [1] (200 ppm, 1 day) it was 5; in data set [1] (200 ppm, 2 days), 7; in data set [1] (200 ppm, 3 days) it was 13. The “Number of killed root-knot nematodes” value in data set [1] (333 ppm, 1 day) was determined as 5; in data set [1] (333 ppm, 2 days), 6; in data set [1] (333 ppm, 3 days) it was 15; in data set [1] (500 ppm, 1 day) it was 5; in data set [1] (500 ppm, 2 days), 10; in data set [1] (500 ppm, 3 days) it was 15. The “Number of killed root-knot nematodes” value in data set [1] (1,000 ppm, 1 day) is 10; in data set [1] (1,000 ppm, 2 days), 15; in data set [1] (3,000 ppm, 1 day), 15; in data set [1] (10,000 ppm, 1 day), 15^a. Moreover, the “Nematocidal efficiency (%)” value in data set [1] (100 ppm) is recorded as 46.7%; in data set [1] (200 ppm) it was 86.7%; in data set [1] (333 ppm) it was 100%; in data set [1] (500 ppm) it was 100%; in data set [1] (1,000 ppm), 100%; in data set [1] (2,000 ppm), 100%. Also, the “Nematocidal efficiency (%)” value in data set [1] (3,000 ppm) and in data set [1] (10,000 ppm) was 100% throughout. Besides, the “Nematocidal efficiency on root-knot nematodes (%)” value in data set [1] (1 day) amounted to 72.5%; in data set [1] (2 days) it was 93.6%; in data set [1] (3 days), 100.0%. In addition, the “Nematocidal effect of geraniol alone relative to palmarosa oil containing the same amount of geraniol” value in data set [1] (same geraniol content (685 ppm)) is “about 4.2 times”. Besides, the “Extent of phytotoxicity (0-5)” value in the data set with tomato seedlings (100 ppm), with tomato seedlings (200 ppm), in the data set on tomato seedlings (330 ppm), in the data set on tomato seedlings (500 ppm), with tomato seedlings (1,000 ppm) and in the data set with tomato seedlings (2,000 ppm) was 0 each time. Also, the “Extent of phytotoxicity (0-5)” value in the data set with tomato seedlings (3,000 ppm) amounted to 0; in the data set on tomato seedlings (4,000 ppm), 5; in the data set on tomato seedlings (5,000 ppm), 5; with tomato seedlings (10,000 ppm), 5; in the data set with tomato seedlings (20,000 ppm) it was 5. Moreover, the Phytotoxicity symptom result with tomato seedlings (100 ppm), in the data set with tomato seedlings (200 ppm), in the data set on tomato seedlings (330 ppm), in the data set on tomato seedlings (500 ppm), with tomato seedlings (1,000 ppm) and in the data set on tomato seedlings (2,000 ppm) was “No” in each case. Besides, the Phytotoxicity symptom entry in the data set on tomato seedlings (3,000 ppm) is on record as “No”; with tomato seedlings (4,000 ppm), “Withered”; in the data set on tomato seedlings (5,000 ppm), “Withered”; with tomato seedlings (10,000 ppm) it was “Withered”; in the data set on tomato seedlings (20,000 ppm), “Withered”.
